Experiments:
[1] = biological target: T1, human recombinant kinase full-length AKT1 E17K (Homo sapiens, UniProt P31749, E17K); experiment: AKT1 E17K kinase assay (TR-FRET, Lance); format: biochemical; settings: 0.6 nM AKT1 E17K, 50 nM Ulight-CREBtide, either 50 μM ATP or 2 mM ATP, 60 min at RT
T1 construct: Purified human recombinant kinase full-length AKT1 E17K was expressed in insect cells; made in house; host or cells: insect cells
Protocol: AKT1 E17K kinase assay: Inhibitory effects of compounds on AKT1 E17K were undertaken in a 10-pt dose response kinase activity assay measuring phospho-peptide product formation based on TR-FRET signal as described in the following paragraph.
(§1) Purified human recombinant kinase full-length AKT1 E17K was expressed in insect cells and activated in vitro by PDPK1. Ulight™-CREBtide (PerkinElmer, catalog number TRF0107) was used as the peptide substrate. The reaction buffer consisted of 50 mM HEPES pH 7.5, 10 mM MgCl2, 0.01% Triton X-100, 0.01% BSA, 2 mM DTT, 0.6 nM AKT1 E17K, 50 nM Ulight™-CREBtide and either 50 μM ATP or 2 mM ATP. The compound solution was prepared as 10 mM DMSO stock. For the assay, a 1.3 serial dilution 10-pt dose response of test compounds, in duplicate, for each concentration were dispensed into a 384-well plate (Corning, catalog number 4513). Final DMSO concentration in the assay was 1%. The enzyme mixture (5 μL, 1.2 nM) were added and the mixture was incubated for 15 min at RT prior to the start of the kinase reaction by the addition of 5 μL substrate mixture (100 nM Ulight™-CREBtide). The reaction was stopped after 60 min of incubation at RT by the addition of 10 μL of Detection Mix (PerkinElmer, #CR97-100) consisting of Europium-anti-phospho-CREB (Ser133) (Perkin Elmer, catalog number TRF0200). Incubation with the detection mix for a further 60 min allowed binding of antibody to the phospho-Ulight™ CREBtide. The fluorescence emissions at 620 nm and 665 nm after excitation at 350 nm was measured using Envision reader. The ratio of the emissions at 665 nm and at 620 nm provided the measure for the amount of phosphorylated CREBtide product of AKT1 E17K kinase activity. To determine the IC50 values, the data was normalized (enzyme reaction without inhibitor=0% inhibition, all other assay components but no enzyme=100% inhibition) and IC50 values were calculated by a 4-parameter fit using an in-house developed protocol.
Table 9 assigns each compound a code for potency in the AKT1 E 17K kinase assay: A, B, or C. According to the code, A represents an IC50 value <500 nM; B represents an IC50 value from ≥500 nM to <2000 nM; and C represents an IC50 value ≥2000 nM.

[2] = biological target: T2, human recombinant kinase full-length wildtype AKT1 (Homo sapiens, UniProt P31749); experiment: AKT1 kinase assay (wildtype, TR-FRET, Lance); format: biochemical; settings: 0.6 nM wildtype AKT1, 50 nM Ulight-CREBtide, either 50 μM ATP or 2 mM ATP, 60 min at RT
T2 construct: Purified human recombinant kinase full-length wildtype AKT1 was expressed in insect cells; made in house; host or cells: insect cells
Protocol: AKT1 kinase assay: Inhibitory effects of compounds on wildtype AKT1 were undertaken in a 10-pt dose response kinase activity assay measuring phospho-peptide product formation based on TR-FRET signal as described in the following paragraph.
as §1, with “full-length wildtype” for “full-length”, “AKT1” for “AKT1 E17K”, “AKT1,50” for “AKT1 E17K, 50”, “1:3” for “1.3”
The symbol +++ represents an IC50 value <20 μM; the symbol ++ represents an IC50 value from ≥20 μM to 80 μM.

T1 sequence (P31749 whole entry E17K): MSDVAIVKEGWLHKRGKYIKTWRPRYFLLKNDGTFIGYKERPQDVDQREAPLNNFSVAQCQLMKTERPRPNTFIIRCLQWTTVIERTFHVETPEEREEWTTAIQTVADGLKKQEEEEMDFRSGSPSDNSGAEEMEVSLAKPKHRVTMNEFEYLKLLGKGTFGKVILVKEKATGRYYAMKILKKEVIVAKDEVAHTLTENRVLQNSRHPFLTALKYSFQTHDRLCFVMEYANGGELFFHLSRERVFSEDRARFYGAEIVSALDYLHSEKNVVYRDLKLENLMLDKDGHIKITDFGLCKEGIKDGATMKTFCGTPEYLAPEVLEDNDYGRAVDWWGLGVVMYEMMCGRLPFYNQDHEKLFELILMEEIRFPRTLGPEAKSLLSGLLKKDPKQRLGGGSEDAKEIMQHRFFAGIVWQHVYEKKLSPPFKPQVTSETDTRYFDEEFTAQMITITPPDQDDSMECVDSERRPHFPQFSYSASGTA
T2 sequence (P31749 whole entry): as the sequence (P31749 whole entry E17K) above, with K17E counted along it

Row | IC50 [1] | IC50 [2] | Compound
1 | ≥ 2 µM | < 20 µM | Nc1ncccc1-c1nc2ccc(-c3ccccc3)nc2n1-c1ccc(N[C@H]2CC[C@H](C(=O)O)CC2)nc1 (single isomer, unassigned) [Compound I-14, (1r,4r)-4-((5-(2-(2-aminopyridin-3-yl)-5-phenyl-3H-imidazo[4,5-b]pyridin-3-yl)pyridin-2-yl)amino)cyclohexane-1-carboxylic acid]
2 | ≥ 2 µM | < 20 µM | Nc1ncccc1-c1nc2ccc(-c3ccccc3)nc2n1-c1ccc(N[C@H]2CC[C@@H](C(=O)O)CC2)nc1 (single isomer, unassigned) [Compound I-15, (1s,4s)-4-((5-(2-(2-aminopyridin-3-yl)-5-phenyl-3H-imidazo[4,5-b]pyridin-3-yl)pyridin-2-yl)amino)cyclohexane-1-carboxylic acid]
3 | ≥ 2 µM | < 20 µM | Nc1ncccc1-c1nc2ccc(-c3ccccc3)nc2n1-c1ccc(CN(CC(F)(F)F)[C@H]2CC[C@H](C(=O)O)CC2)cc1 (single isomer, unassigned) [Compound I-188, (1r,4r)-4-((4-(2-(2-aminopyridin-3-yl)-5-phenyl-3H-imidazo[4,5-b]pyridin-3-yl)benzyl)(2,2,2-trifluoroethyl)amino)cyclohexane-1-carboxylic acid]
4 | ≥ 2 µM | < 20 µM | Nc1ncccc1-c1nc2ccc(-c3ccccc3)nc2n1-c1ccc(CN(CC(F)(F)F)[C@H]2CC[C@@H](C(=O)O)CC2)cc1 (single isomer, unassigned) [Compound I-189, (1s,4s)-4-((4-(2-(2-aminopyridin-3-yl)-5-phenyl-3H-imidazo[4,5-b]pyridin-3-yl)benzyl)(2,2,2-trifluoroethyl)amino)cyclohexane-1-carboxylic acid]
5 | 0.5 to 2 µM | < 20 µM | Nc1ncccc1-c1nc2ccc(-c3ccccc3F)nc2n1-c1ccc([C@H]2CCN(C[C@H]3CC[C@@H](C(=O)O)CC3)C2)cc1 (single isomer, unassigned) [Compound I-228]
6 | 0.5 to 2 µM | < 20 µM | Nc1ncccc1-c1nc2ccc(-c3ccccc3F)nc2n1-c1ccc([C@@H]2CCN(C[C@H]3CC[C@@H](C(=O)O)CC3)C2)cc1 (single isomer, unassigned) [Compound I-229]
7 | 0.5 to 2 µM | < 20 µM | Nc1ncccc1-c1nc2ccc(-c3ccccc3F)nc2n1-c1ccc([C@H]2CCN(C[C@H]3CC[C@H](C(=O)O)CC3)C2)cc1 (single isomer, unassigned) [Compound I-230]
8 | < 0.5 µM | < 20 µM | Nc1ncccc1-c1nc2ccc(-c3ccccc3F)nc2n1-c1ccc([C@@H]2CCN(C[C@H]3CC[C@H](C(=O)O)CC3)C2)cc1 (single isomer, unassigned) [Compound I-231]
9 | 0.5 to 2 µM | < 20 µM | Nc1ncccc1-c1nc2ccc(-c3ccccc3)nc2n1-c1ccc([C@H]2CCN(C[C@H]3CC[C@H](C(=O)O)CC3)C2)cc1 (single isomer, unassigned) [Compound I-232]
10 | < 0.5 µM | < 20 µM | Nc1ncccc1-c1nc2ccc(-c3ccccc3)nc2n1-c1ccc([C@@H]2CCN(C[C@H]3CC[C@H](C(=O)O)CC3)C2)cc1 (single isomer, unassigned) [Compound I-233]
11 | < 0.5 µM | < 20 µM | CC1(C)C[C@H](C(=O)O)CC[C@@H]1CN1CC(c2ccc(-n3c(-c4cccnc4N)nc4ccc(-c5ccccc5)nc43)cc2)C1 (stereo in doubt) [Compound I-144]
12 | 0.5 to 2 µM | < 20 µM | CC1(C)C[C@@H](C(=O)O)CC[C@@H]1CN1CC(c2ccc(-n3c(-c4cccnc4N)nc4ccc(-c5ccccc5)nc43)cc2)C1 (stereo in doubt) [Compound I-145]
13 | < 0.5 µM | < 20 µM | CN(Cc1ccc(-n2c(-c3cccnc3N)nc3ccc(-c4ccccc4)nc32)cc1)[C@@H]1CC[C@@H](C(=O)O)C1 (stereo in doubt) [Compound I-171]
14 | 0.5 to 2 µM | < 20 µM | CC(C)(C(=O)O)[C@@H]1CCN(Cc2ccc(-n3c(-c4cccnc4N)nc4ccc(-c5ccccc5)nc43)cc2)C1 (stereo in doubt) [Compound I-174]
15 | 0.5 to 2 µM | < 20 µM | CC(C)(C(=O)O)[C@H]1CCN(Cc2ccc(-n3c(-c4cccnc4N)nc4ccc(-c5ccccc5)nc43)cc2)C1 (stereo in doubt) [Compound I-175]
16 | 0.5 to 2 µM | < 20 µM | Nc1ncccc1-c1nc2ccc(-c3ccccc3)nc2n1-c1ccc(C2CCN(C[C@H]3CCC[C@@H](C(=O)O)C3)CC2)cc1 (stereo in doubt) [Compound I-191]
17 | 0.5 to 2 µM | < 20 µM | Nc1ncccc1-c1nc2ccc(-c3ccccc3)nc2n1-c1ccc(C2CCN(C[C@@H]3CCC[C@H](C(=O)O)C3)CC2)cc1 (stereo in doubt) [Compound I-192]
18 | < 0.5 µM | < 20 µM | Nc1ncccc1-c1nc2ccc(-c3ccccc3)nc2n1-c1ccc(NC(=O)C2CCC(C(=O)O)C2)cc1 (centres unmarked) [Compound I-1, 3-((4-(2-(2-aminopyridin-3-yl)-5-phenyl-3H-imidazo[4,5-b]pyridin-3-yl)phenyl)carbamoyl)cyclopentane-1-carboxylic acid]
19 | < 0.5 µM | < 20 µM | Nc1ncccc1-c1nc2ccc(-c3ccccc3)nc2n1-c1ccc(NC(=O)[C@H]2CC[C@H](C(=O)O)CC2)cc1 [Compound I-2]
20 | < 0.5 µM | < 20 µM | Nc1ncccc1-c1nc2ccc(-c3ccccc3)nc2n1-c1ccc(NC(=O)[C@H]2CC[C@@H](C(=O)O)CC2)cc1 [Compound I-3, cis-4-[[4-[2-(2-amino-3-pyridyl)-5-phenyl-imidazo[4,5-b]pyridin-3-yl]phenyl]carbamoyl]cyclohexanecarboxylic acid]
21 | < 0.5 µM | < 20 µM | Nc1ncccc1-c1nc2ccc(-c3ccccc3)nc2n1-c1ccc(NC(=O)C2CCCC(C(=O)O)C2)cc1 (centres unmarked) [Compound I-4, 3-[[4-[2-(2-amino-3-pyridyl)-5-phenyl-imidazo[4,5-b]pyridin-3-yl]phenyl]carbamoyl]cyclohexanecarboxylic acid]
22 | 0.5 to 2 µM | < 20 µM | Nc1ncccc1-c1nc2ccc(-c3ccccc3)nc2n1-c1ccc(NC(=O)C2CCC(C(=O)O)CC2)cc1F (centres unmarked) [Compound I-5, 4-((4-(2-(2-aminopyridin-3-yl)-5-phenyl-3H-imidazo[4,5-b]pyridin-3-yl)-3-fluorophenyl)carbamoyl)cyclohexane-1-carboxylic acid]
